Measured values taken from patent publication US7915220B2, “Peptidomimetic agents from dextrorotatory amino acids as well as pharmaceutical agents that contain the latter for treatment of neurodegenerative diseases” (JSW-Research Forschungslabor GmbH, priority 2006, dated 2011).
Where a SMILES comes first, the peptide text is derived from it. [ ]: non-standard residue; d: D form.

Tests used:
[1] = Stability of peptides incubated with rat brain homogenate (RP-HPLC / LC-MS); assay type: in vitro ADME; conditions: for remaining at 0.25 h, 0.2 mM / remaining at 1 h, 0.2 mM / remaining at 3 h, 0.2 mM / remaining at 24 h, 0.2 mM: pH 7.6, 37° C.; for remaining at 0.25 h, 0.2 mM: 15 minutes, read-out: portion of the amount of sample used left after 15 Minutes; for remaining at 1 h, 0.2 mM: read-out: portion of the amount of sample used left after 1 Hour; for remaining at 3 h, 0.2 mM: read-out: portion of the amount of sample used left after 3 Hours; for remaining at 24 h, 0.2 mM: read-out: portion of the amount of sample used left after 24 Hours; for half-life at 0.2 mM: tris buffer pH 7.6, 37° C.
Experimental: An essential advantage of the peptidomimetic agents according to the invention, which consist of D-amino acids as well as glycine, is the higher stability compared to the degradation by various enzymes that occur in the body—in particular peptidases. For this reason, the stability of the nuclear sequence mimetic agent vGek was compared to that of the corresponding retroinverse peptide KEGV according to WO 03/082906 A, whereby the peptides together with a rat brain homogenate were incubated for 15 minutes as well as for 1, 3 and 24 hours.
To this end, freshly isolated rat brain was homogenized in tris buffer (pH 7.6) and used immediately. In each case, a portion of a 1 mmol peptide solution and four parts of the homogenate were incubated at 37° C. After the incubation, the decomposition of the enzymes was halted by adding 50 μl of 0.1 M HCl. Then, a denaturation of the proteins was carried out with methanol (volume ratio: 1:4) at −20° C. for 60 minutes. Then, it was centrifuged for 20 minutes at 4° C. and 29,000 g.
Finally, the samples were concentrated under vacuum and analyzed by means of RP-HPLC (liquid chromatography, with UV/vis detector, detection wavelength: 220 nm; solvent: (A) 0.1% TFA/water (A), 0.1% TFA in 80% ACN/water (B); column: Phenomenex Jupiter C18 (250×4 mm, 5 μm of 300 Å), flow rate: 1.2 ml/minute, gradients: 0 to 15% B after 30 minutes (KEGVOH), 0% isocratic B for 10 minutes, then at 0 to 15% B after 30 minutes (KEGVNH2), 0 to 15% B after 20 minutes (vGekNH2)).
As an alternative, LC-MS (Applied Biosystems 140C Microgradient System; solvent: 0.1% HCOOH/water (A), 0.1% HCOOH in 80% acetonitrile/water (B); column: Alltech Hypersil C18 (150×2.1 mm, 5 μm of 100 Å), flow rate: 0.15 ml/minute, gradient: 0 to 15% B after 20 minutes; detector: Finnigan TSQ-7000 Triple Quadrupole Mass Spectrometer, m/z Range; 10-1000, scan time: 1.0 second) was also used.

SHSY-5Y cells = assay: MTT test, injury of differentiated SHSY-5Y cells with pre-aggregated Aβ-1-42; assay type: cell-based
Experimental: To examine the action of the peptidomimetic agent according to the invention in a relevant biological system, injury tests were performed in cell cultures with Aβ-1-42 (β-amyloid). Differentiated SHSY-5Y cells were used as cell culture systems.
The cells that were still not differentiated were cultivated in 96-well plates at 37° C. in an atmosphere in DMEM/F12 (Cambrex) that contains 5% CO2 until confluence is completed. For differentiation, the following medium composition was selected: 10 μmol of All-Trans-retinoic acid, 10% FBS, 4 mmol of L-glutamine, 200 units/ml of penicillin, 200 μg/ml of streptomycin, 0.5% DMSO in MEM non-essential amino acids (e.g., Cambrex). After 8 days in the differentiation medium, 3×10^5 cells/cm^2 in the form of a monolayer were present.
Before the application, the test substances were irradiated for 10 minutes in a form already dissolved in culture medium. This medium contained 2% FBS (fetal bovine serum) and was free of phenol red, retinoic acid and DMSO.
Aβ-1-42 was pre-aggregated before the addition for 24 hours at room temperature while being shaken lightly. […]
Then, the medium was carefully emptied, and the formazan crystals that were produced were dissolved with a DMSO/ethanol solution (4:1). Finally, the color intensity obtained was measured at 550 nm in an ELISA reader. […]

[2] = Blood-brain barrier passage of tritiated vGek in rats (radioactivity in organs); assay type: in vivo
Experimental: The test was performed as follows:
Rats were injected with […] of tritiated vGek (vGek of specific activity: 34.0 Ci/mmol). 10, 30 and 60 minutes after the injection, the animals were anesthetized, and blood as well as a few organs were removed for examination and weighed. Depending on the organ, 50-250 mg of tissue was removed in a solvent and incubated at 60° C. for 2 hours. After cooling to room temperature, 200 μl of 30% H2O2 was added. Then, another incubation at 60° C. was carried out for 30 minutes. Finally, the radioactivity was determined with the aid of a scintillation measuring device.

Compound	remaining at 0.25 h, 0.2 mM [1]	remaining at 1 h, 0.2 mM [1]	remaining at 3 h, 0.2 mM [1]	remaining at 24 h, 0.2 mM ([1]; 24 hours)	half-life at 0.2 mM [1]	also measured
CC(C)[C@H](NC(=O)CNC(=O)[C@H](CCC(=O)O)NC(=O)[C@@H](N)CCCCN)C(N)=O [KEGVNH2] (H-KEGV-NH2; N-terminus assumed)	22%	0%	0%	0%	< 0.25 h	
CC(C)[C@H](NC(=O)CNC(=O)[C@H](CCC(=O)O)NC(=O)[C@@H](N)CCCCN)C(=O)O [KEGVOH] (H-KEGV-OH; N-terminus assumed)	14%	0%	0%	0%	< 0.25 h	
CC(C)[C@@H](N)C(=O)NCC(=O)N[C@H](CCC(=O)O)C(=O)N[C@H](CCCCN)C(=O)O [vGek, Dval-gly-Dglu-Dlys] (H-[dV]G[dE][dK]-OH; N-terminus and C-terminus assumed)						influence on the survival of cells (toxicity of the peptide alone) (SHSY-5Y cells; 50 μmol vGek alone): no detectable influence on the survival of cells; stability above that of the corresponding peptide KEGV ([1]; in vitro): 2-3 orders of magnitude; highest measured value in the brain ([2]; injection of 2.94 mmol tritiated vGek): 1.33 pmol; passage through the blood-brain barrier ([2]; tritiated vGek): could overcome the blood-brain barrier
CC(C)[C@@H](N)C(=O)NCC(=O)N[C@H](CCC(=O)O)C(=O)N[C@H](CCCCN)C(N)=O [vGekNH2] (H-[dV]G[dE][dK]-NH2; N-terminus assumed)			70%	50%	20 to 24 h	detectability of peptide after 24 hours ([1]; 37° C., 24 hours): can be detected
Aβ-1-42: amyloidogenic β-amyloid peptide with 42 amino acids, used pre-aggregated to damage cells						survival rate of SHSY-5Y cells (SHSY-5Y cells; 10 μmol of pre-aggregated Aβ-1-42 alone): 56%
